# Assay results: patent US10766883B2, “Aminopyrazoles as janus kinase inhibitors” (Merck Sharp & Dohme Corp., priority 2016, dated 2020)
# Like-named read-outs stand apart in the source and are kept apart here.
# Assays:
# JAK3 = JAK3 (Homo sapiens (Human), UniProt P52333); assay: JAK biochemical HTRF enzyme assay, JAK3; settings: reference compound, mean +/- spread across assay runs
# Procedure: (§1) The ability of compounds to inhibit the activity of JAK1, JAK2, JAK3, and Tyk2 was measured using a recombinant purified GST-tagged catalytic domain for each enzyme (InVitrogen/Life Technologies/ThermoFisher Scientific Inc., Waltham, Mass., USA; catalogue numbers: M4290(JAK1), M4290(JAK2), M4290(JAK3), M4290(Tyk2)) in an HTRF format biochemical assay. The reactions employed a common peptide substrate, LCB-[…]-NH2 (Merck Sharp & Dohme, Kenilworth, N.J., USA).
# (§2) The basic assay protocol is as follows: First, 250 nL of diluted compounds in DMSO were dispensed into the wells of a dry 384-well Black plate (GreinerFluotrac™ catalog number: 781076; Greiner Bio-One GmbH, Frickenhausen, Germany) using a Labcyte Echo® 555 acoustic dispenser (Clarcyte, Inc, Sunnyvale, Calif., USA). Subsequent reagent additions employed an Agilent™ Bravo™ liquid handling system (Aligent Technologies, Santa Clara, Calif., USA). […] After equilibration, 2 μL of 10×ATP in 1× assay buffer was added to initiate the kinase reaction and the plates were shaken and then incubated at ambient temperature for 120 minutes. […] HTRF signal=10,000*665 nm reading/615 nm reading. After normalization to untreated controls, the percent inhibition of the HTRF signal at each compound concentration was calculated. […]
# JAK1 = JAK1 (Homo sapiens (Human), UniProt P23458); assay: JAK biochemical HTRF enzyme assay, JAK1
# Procedure: (§3) The ability of compounds to inhibit the activity of JAK1, JAK2, JAK3, and Tyk2 was measured using a recombinant purified GST-tagged catalytic domain for each enzyme (InVitrogen/Life Technologies/ThermoFisher Scientific Inc., Waltham, Mass., USA; catalogue numbers: M4290(JAK1), M4290(JAK2), M4290(JAK3), M4290(Tyk2)) in an HTRF format biochemical assay.
# (§4) Subsequent reagent additions employed an Agilent™ Bravo™ liquid handling system (Aligent Technologies, Santa Clara, Calif., USA). […] After equilibration, 2 μL of 10×ATP in 1× assay buffer was added to initiate the kinase reaction and the plates were shaken and then incubated at ambient temperature for 120 minutes. […] After normalization to untreated controls, the percent inhibition of the HTRF signal at each compound concentration was calculated. The plot of percent inhibition versus the log of compound concentration was fit with a 4-parameter dose response equation to calculate IC50 values.
# [1] = tested on: Interleukin 4 (IL4)—JAK1/JAK3—STAT6 Pathway; assay: IL4 CellSensor beta-lactamase reporter assay (STAT6-bla RA-1 cells); format: cell-based; settings: reference compound, mean +/- spread across assay runs
# From the text: (§5) Inhibition of the activity of JAK kinases (JAK1, JAK2, JAK3 and TYK2) in intact cells was quantified in antagonist mode using CellSensor® transcriptional reporter technology (Life Technologies/ThermoFisher Scientific Inc., Waltham, Mass., USA; https://www.thermofisher.com/us/en/home/industrial/pharma-biopharma drug-discovery-development/target-and-lead-identification-and-validation/pathway-biology/cellular-pathway-analysis/cellsensor-cell-lines.html), in three independent cell lines engineered to detect IL4, IL6 and EPO signaling. In brief, CellSensor® cell lines (see details below for each assay) carrying a stably integrated β-Lactamase reporter gene under control of specific cis-regulatory STAT elements responsive to the pathway being monitored were pre-treated with test compounds serially diluted in DMSO (see preparation and dosing of compounds and agonist cytokines section). Following incubation with compounds, IL4, IL6, or EPO were added to each cognate cell line at a concentration equal to a dose necessary to achieve 80% of the maximal response (EC80).
# (§6) Incubation with compounds, cytokines and LiveBLAzer™ were carried out at 37° C. in a tissue culture incubator maintained at 90% humidity and 5% CO2.
# Interleukin 4 (IL4)—JAK1/JAK3—STAT6 Pathway […]
# Tyk2 = Tyk2 (Homo sapiens (Human), UniProt P29597); assay: JAK biochemical HTRF enzyme assay, Tyk2; settings: reference compound, mean +/- spread across assay runs
# Procedure: as §1, §2
# EPO/Jak2/Stat5 pathway = assay: EPO CellSensor beta-lactamase reporter assay (irf1-bla TF-1 cells); format: cell-based, human; settings: for IC50: Homo sapiens; for EPO/IL-6: ratio EPO IP / IL-6 IP
# From the text: as §5, with “section).” for “section). Following incubation with compounds, IL4, IL6, or EPO were added to each cognate cell line at a concentration equal to a dose necessary to achieve 80% of the maximal response (EC80).”
# as §6
# Erythropoietin (EPO)—JAK2—STAT5 Pathway
# CellSensor irf1-bla TF-1 cells carry a stably integrated β-Lactamase reporter gene under control of the STAT5 Response Elements present in the Interferon Regulatory Factor I (IRF1) gene promoter.
# (§7) Each CellSensor® cell line was subsequently plated as per supplier's instructions (30,000 cells in 32 μL/well) and mixed with the compound. Following a 60 minute incubation, cells were subsequently stimulated by addition of 8 μL of cognate cytokine (EC80 dose of IL4, IL6 and EPO) and incubated for an additional 3 hours, before adding LiveBLAzer™-FRET B/G substrate.
# (§8) The IL-6 assay identifies agents that inhibit the beta-lactamase reporter activity initiated through stimulation of the IL-6R/JAK1/2/Stat3 pathway with recombinant human IL-6. The EPO assay identifies agents that inhibit the beta-lactamase reporter activity initiated through stimulation of the EPO/Jak2/Stat5 pathway with human EPO. Inhibition of EPO signaling leads to an inability to recover from anemia of chronic disease. […] That is, it is desirable for the EPO/IL-6 IC50 ratios to be a relatively large number.
# [2] = tested on: IL-6R/JAK1/2/Stat3 pathway; assay: IL6 CellSensor beta-lactamase reporter assay (SIE-bla ME-180 cells); format: cell-based; settings: Homo sapiens
# From the text: as §5, with “section).” for “section). Following incubation with compounds, IL4, IL6, or EPO were added to each cognate cell line at a concentration equal to a dose necessary to achieve 80% of the maximal response (EC80).”
# as §6
# Interleukin 6 (IL6)—JAK1/JAK2—STAT4 Pathway
# CellSensor™ SIE-bla ME-180 cells carrying a stably integrated β-Lactamase reporter gene under control of the Sis-Inducible Element (SIE).
# as §7, §8
# JAK2 = JAK2 (Homo sapiens (Human), UniProt O60674); assay: JAK biochemical HTRF enzyme assay, JAK2; settings: for JAK2/1: ratio JAK2 IC50 / JAK1 IC50
# Procedure: as §3, §4
# [3] = reference compound, mean +/- spread across assay runs
# [4] = irf1-bla TF-1 cells, EPO at EC80, read-out: EPO IP
# [5] = SIE-bla ME-180 cells, IL6 at EC80, read-out: IL-6 IP
# [6] = HTRF, GST-tagged catalytic domain, ATP 31.8 μM
# [7] = HTRF, GST-tagged catalytic domain, ATP 8.5 μM
# Chain of JAK2 (O60674 849-1124): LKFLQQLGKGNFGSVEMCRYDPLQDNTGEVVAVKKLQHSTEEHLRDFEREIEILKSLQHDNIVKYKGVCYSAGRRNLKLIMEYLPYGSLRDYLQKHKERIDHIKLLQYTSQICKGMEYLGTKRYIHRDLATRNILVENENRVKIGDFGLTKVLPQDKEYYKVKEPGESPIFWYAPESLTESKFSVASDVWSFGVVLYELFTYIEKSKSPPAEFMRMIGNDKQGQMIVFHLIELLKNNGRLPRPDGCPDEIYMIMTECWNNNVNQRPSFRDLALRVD
# Chain of JAK1 (P23458 875-1153): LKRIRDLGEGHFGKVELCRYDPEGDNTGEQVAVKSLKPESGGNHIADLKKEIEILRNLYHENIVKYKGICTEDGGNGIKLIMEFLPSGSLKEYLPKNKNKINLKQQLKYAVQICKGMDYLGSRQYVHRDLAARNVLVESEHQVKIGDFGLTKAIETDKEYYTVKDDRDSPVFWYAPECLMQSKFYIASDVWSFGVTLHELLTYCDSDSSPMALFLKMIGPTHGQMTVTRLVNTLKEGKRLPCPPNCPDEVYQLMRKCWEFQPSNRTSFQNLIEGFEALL
# Chain of JAK3 (P52333 822-1111): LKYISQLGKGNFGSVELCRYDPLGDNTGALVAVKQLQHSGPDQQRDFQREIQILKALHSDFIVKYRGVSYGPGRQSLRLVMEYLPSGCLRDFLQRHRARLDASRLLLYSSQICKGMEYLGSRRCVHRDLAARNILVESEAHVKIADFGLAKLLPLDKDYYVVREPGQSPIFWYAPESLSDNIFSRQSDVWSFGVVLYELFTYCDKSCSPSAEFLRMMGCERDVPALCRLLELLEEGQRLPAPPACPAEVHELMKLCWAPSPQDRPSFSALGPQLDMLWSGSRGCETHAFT
# Chain of Tyk2 (P29597 897-1176): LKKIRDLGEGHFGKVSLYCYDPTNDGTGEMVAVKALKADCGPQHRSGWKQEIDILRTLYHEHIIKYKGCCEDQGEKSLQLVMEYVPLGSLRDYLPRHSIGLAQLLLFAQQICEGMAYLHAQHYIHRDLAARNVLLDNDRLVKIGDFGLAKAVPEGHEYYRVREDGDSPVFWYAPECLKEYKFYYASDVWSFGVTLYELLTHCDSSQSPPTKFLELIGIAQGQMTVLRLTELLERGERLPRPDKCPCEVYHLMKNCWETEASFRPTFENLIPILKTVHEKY
compound,measurement,setting,value
"CN(C)[C@H]1CC[C@H](n2cc(C(N)=O)c(Nc3ccc(Cl)cc3)n2)[C@@H](C#N)C1 (single isomer, unassigned) [Reference Compound No. 1, 3-[(4-chlorophenyl)amino]-1-[(1S,2S,4S or 1R,2R,4R)-2-cyano-4-(dimethylamino)cyclohexyl]-1H-pyrazole-4-carboxamide]",IC50,JAK3,1350 nM
same,IC50,JAK1; [3],1.47 nM
same,IC50,[1],25.7 nM
same,IC50,Tyk2,14 nM
"N#C[C@H]1CCOC[C@@H]1n1cc(C(N)=O)c(Nc2ccc(Cl)cc2)n1 [Comp. Ex-1, reference compound]",IC50,EPO/Jak2/Stat5 pathway; [4],132 nM
same,EPO/IL-6,EPO/Jak2/Stat5 pathway,9
"N#C[C@H]1CCOC[C@@H]1n1cc(C(N)=O)c(Nc2ccc(Cl)c(Cl)c2)n1 [Comp. Ex-2, reference compound]",IC50,EPO/Jak2/Stat5 pathway; [4],2170 nM
same,EPO/IL-6,EPO/Jak2/Stat5 pathway,31
same,IC50,[2]; [5],69 nM
"N#C[C@H]1CCOC[C@@H]1n1cc(C(N)=O)c(Nc2ccc(OC(F)(F)F)cc2)n1 [Comp. Ex-3, reference compound]",IC50,EPO/Jak2/Stat5 pathway; [4],80 nM
same,EPO/IL-6,EPO/Jak2/Stat5 pathway,6
same,IC50,[2]; [5],14 nM
"N#Cc1ccc(Nc2nn([C@H]3COCC[C@@H]3C#N)cc2C(N)=O)cc1 [Comp. Ex-4, reference compound]",IC50,EPO/Jak2/Stat5 pathway; [4],89 nM
same,EPO/IL-6,EPO/Jak2/Stat5 pathway,6
same,IC50,[2]; [5],14 nM
"COc1cc(Nc2nn([C@H]3COCC[C@@H]3C#N)cc2C(N)=O)ccc1Cl [Ex-1, 3-((4-Chloro-3-methoxyphenyl)amino)-1-((3R,4S)-4-cyanotetrahydro-2H-pyran-3-yl)-1H-pyrazole-4-carboxamide]",IC50,EPO/Jak2/Stat5 pathway; [4],280 nM
same,EPO/IL-6,EPO/Jak2/Stat5 pathway,19
same,IC50,[2]; [5],15 nM
same,IC50,JAK1; [6],0.12 nM
same,IC50,JAK2; [7],3.88 nM
same,JAK2/1,JAK2,32
"CSc1cc(Nc2nn([C@H]3COCC[C@@H]3C#N)cc2C(N)=O)ccc1Cl [Ex-2, 3-((4-chloro-3-(methylthio)phenyl)amino)-1-((3R,4S)-4-cyanotetrahydro-2H-pyran-3-yl)-1H-pyrazole-4-carboxamide]",IC50,EPO/Jak2/Stat5 pathway; [4],649 nM
same,EPO/IL-6,EPO/Jak2/Stat5 pathway,30
same,IC50,[2]; [5],22 nM
same,IC50,JAK1; [6],0.25 nM
same,IC50,JAK2; [7],5.48 nM
same,JAK2/1,JAK2,22
"COc1cc(Nc2nn([C@H]3COCC[C@@H]3C#N)cc2C(N)=O)ccc1C#N [Ex-3, 3-((4-cyano-3-methoxyphenyl)amino)-1-((3R,4S)-4-cyanotetrahydro-2H-pyran-3-yl)-1H-pyrazole-4-carboxamide]",IC50,EPO/Jak2/Stat5 pathway; [4],431 nM
same,EPO/IL-6,EPO/Jak2/Stat5 pathway,23
same,IC50,[2]; [5],19 nM
same,IC50,JAK1; [6],0.07 nM
same,IC50,JAK2; [7],3.28 nM
same,JAK2/1,JAK2,49
"CC(C)c1cc(Nc2nn([C@H]3COCC[C@@H]3C#N)cc2C(N)=O)ccc1C#N [Ex-4, 3-((4-cyano-3-isopropylphenyl)amino)-1-((3R,4S)-4-cyanotetrahydro-2H-pyran-3-yl)-1H-pyrazole-4-carboxamide]",IC50,EPO/Jak2/Stat5 pathway; [4],744 nM
same,EPO/IL-6,EPO/Jak2/Stat5 pathway,16
same,IC50,[2]; [5],47 nM
same,IC50,JAK1; [6],0.49 nM
same,IC50,JAK2; [7],9.7 nM
same,JAK2/1,JAK2,20
"Cc1noc2ccc(Nc3nn([C@H]4COCC[C@@H]4C#N)cc3C(N)=O)cc12 [Ex-5, 1-((3R,4S)-4-cyanotetrahydro-2H-pyran-3-yl)-3-((3-methylbenzo[d]isoxazol-5-yl)amino)-1H-pyrazole-4-carboxamide]",IC50,EPO/Jak2/Stat5 pathway; [4],309 nM
same,EPO/IL-6,EPO/Jak2/Stat5 pathway,18
same,IC50,[2]; [5],17 nM
same,IC50,JAK1; [6],0.16 nM
same,IC50,JAK2; [7],3.04 nM
same,JAK2/1,JAK2,19
"CS(=O)(=O)c1ccc(Nc2nn([C@H]3CCCC[C@@H]3C#N)c3cc[nH]c(=O)c23)cc1 [Reference Compound No. 2, (1S,2S)-2-(3-{[4-(methylsulfonyl)phenyl]amino}-4-oxo-4,5-dihydro-1H-pyrazolo[4,3-c]pyridin-1-yl)cyclohexanecarbonitrile, reference compound]",IC50,"EPO/Jak2/Stat5 pathway; TF-1, reference compound, mean +/- spread across assay runs, read-out: EPO CellSensor assay IC50",39.5 nM
same,"potency spread across the IL6, EPO and IL4 CellSensor assays",EPO/Jak2/Stat5 pathway; across all three CellSensor assays,two to three
same,IC50,JAK3,21.9 nM
same,IC50,"[2]; ME-180, reference compound, mean +/- spread across assay runs, read-out: IL6 CellSensor assay IC50",21 nM
same,IC50,JAK1; [3],0.17 nM
same,IC50,[1],11.1 nM
same,IC50,JAK2; [3],1 nM
same,IC50,Tyk2,0.28 nM
